In the RepoRT retention time repository (doi:10.1016/j.foodchem.2021.129757) one finds LC retention time data, which are given here for six compounds.

SMILES strings stand for the structures.

One data set in a line: RP, Waters ACQUITY UPLC HSS T3, 100 × 2.1 mm, 1.8 µm, 30 °C, 0.4 mL/min, estimated dead time 0.55 min; A: water + 0.1% formic acid, pH 3; B: acetonitrile + 0.1% formic acid, pH 3; gradient (min/%B) 0/0 2/0 15/100 22/100 22.1/0 26/0. Particulars: stereoisomer not certain.
As for `O=c1c(-c2ccc(O)cc2)coc2cc(O)cc(O)c12` [Genistein], the LC retention time is 11.5 min.

With `O=c1c(OS(=O)(=O)O)c(-c2ccc(O)c(O)c2)oc2cc(O)cc(O)c12` [Quercetin 3-O-sulfate], the LC retention time was 10.5 min.

A further data set in a line: Other, Phenomenex Kinetex PFP, 100 × 4.6 mm, 5 µm, 45 °C, 0.6 mL/min, estimated dead time 1.8 min; A: water + 0.1% trifluoroacetic acid, pH 2; B: methanol; gradient (min/%B) 0/40 20/72 21/40. Particulars: stereoisomer not certain.
In the case of `O=c1cc(-c2ccc(O)c(O)c2)oc2cc(O)cc(O)c12` [Luteolin], the LC retention time was 18.6 min.

In the case of `COc1cc(C=O)ccc1O` [Vanillin], the LC retention time is 6.9 min.

With `O=c1c(-c2ccc(O)cc2)coc2cc(O)cc(O)c12` [Genistein], the LC retention time was 18 min.

With `O=c1c(OS(=O)(=O)O)c(-c2ccc(O)c(O)c2)oc2cc(O)cc(O)c12` [Quercetin 3-O-sulfate], the LC retention time is 14.7 min.

The nature of another data set: RP, Waters Atlantis T3, 100 × 2.1 mm, 3 µm, 40 °C, 0.3 mL/min, estimated dead time 0.73 min; A: water + 0.1% trifluoroacetic acid, pH 2; B: acetonitrile + 0.1% trifluoroacetic acid, pH 2; gradient (min/%B) 0/10 1/10 6/40 7/50 8/50 14/70 16/80 20/10 25/10. Particulars: stereoisomer not certain.
For `O=c1cc(-c2ccc(O)c(O)c2)oc2cc(O)cc(O)c12` [Luteolin], the LC retention time is 9.3 min.

In the case of `O=c1c(O)c(-c2ccc(O)cc2)oc2cc(O)cc(O)c12` [Kaempferol], the LC retention time is 10.2 min.

Another data set can be described thus: RP, Phenomenex Kinetex EVO C18, 100 × 2.1 mm, 2.6 µm, 40 °C, 0.4 mL/min, estimated dead time 0.55 min; A: water + 0.2% formic acid; B: acetonitrile + 0.2% formic acid; gradient (min/%B) 0/5 0.5/5 7/95 8/95 8.5/5 12/5. Particulars: stereoisomer not certain.
`O=c1c(OS(=O)(=O)O)c(-c2ccc(O)c(O)c2)oc2cc(O)cc(O)c12` [Quercetin 3-O-sulfate]: the LC retention time is 6.76 min.

Another data set is described as follows: RP, Waters ACQUITY UPLC BEH C18, 100 × 2.1 mm, 1.7 µm, 65 °C, 0.4 mL/min, estimated dead time 0.55 min; A: water + 0.1% formic acid, pH 3; B: 80% acetonitrile + 20% acetone + 0.1% formic acid, pH 3; gradient (min/%B) 0/0 5/100 5.5/0 6/0. Particulars: stereoisomer not certain.
Take `O=c1c(O)c(-c2ccc(O)cc2)oc2cc(O)cc(O)c12` [Kaempferol]: the LC retention time was 3.02 min.

Regarding `COc1cc(C=O)ccc1O` [Vanillin], the LC retention time is 2.03 min.

Take `O=c1c(-c2ccc(O)cc2)coc2cc(O)cc(O)c12` [Genistein]: the LC retention time is 2.84 min.

A short description of another data set: RP, 150 × 2.1 mm, 2.6 µm, 40 °C, 0.35 mL/min, estimated dead time 0.94 min; A: water + 0.1% formic acid, pH 3; B: acetonitrile + 0.1% formic acid, pH 3; gradient (min/%B) 0/0 1/0 12.5/100 14/100 14.2/0 15/0. Particulars: stereoisomer not certain.
Consider `O=c1cc(-c2ccc(O)c(O)c2)oc2cc(O)cc(O)c12` [Luteolin], for which the LC retention time was 7.14 min.

`O=c1c(-c2ccc(O)cc2)coc2cc(O)cc(O)c12` [Genistein]: the LC retention time was 7.65 min.

A further data set is described as follows: RP, Phenomenex Luna Omega Polar C18, 100 × 2.1 mm, 1.6 µm, 40 °C, 0.5 mL/min, estimated dead time 0.44 min; A: water + 0.5% formic acid; B: acetonitrile + 0.5% formic acid; gradient (min/%B) 0/5 3/50 3.1/100 5/100 5.1/5 7/5. Particulars: stereoisomer not certain.
On to `O=c1cc(-c2ccc(O)c(O)c2)oc2cc(O)cc(O)c12` [Luteolin], for which the LC retention time was 3.57 min.

On to `O=c1c(O)c(-c2ccc(O)cc2)oc2cc(O)cc(O)c12` [Kaempferol], for which the LC retention time is 3.7 min.

As for `COc1cc(C=O)ccc1O` [Vanillin], the LC retention time was 2.44 min.

For `Oc1cc(O)c2c(c1)OC(c1ccc(O)c(O)c1)C(O)C2` (single isomer, unassigned; (-)) [(-)-Epicatechin], the LC retention time was 1.99 min.

In the case of `O=c1c(-c2ccc(O)cc2)coc2cc(O)cc(O)c12` [Genistein], the LC retention time is 3.49 min.

Regarding `O=c1c(OS(=O)(=O)O)c(-c2ccc(O)c(O)c2)oc2cc(O)cc(O)c12` [Quercetin 3-O-sulfate], the LC retention time is 2.93 min.

The nature of another data set: RP, Agilent ZORBAX RRHD Eclipse Plus C18, 50 × 2.1 mm, 1.8 µm, 30 °C, 0.4 mL/min, estimated dead time 0.28 min; A: water + 0.1% formic acid, pH 3; B: acetonitrile + 0.1% formic acid, pH 3; gradient (min/%B) 0/1 5/10 8/25 9.1/99 10/99 12/99. Particulars: stereoisomer not certain.
As to `O=c1c(O)c(-c2ccc(O)cc2)oc2cc(O)cc(O)c12` [Kaempferol], the LC retention time is 9.29 min.

With `O=c1c(OS(=O)(=O)O)c(-c2ccc(O)c(O)c2)oc2cc(O)cc(O)c12` [Quercetin 3-O-sulfate], the LC retention time is 8.12 min.

A short description of a further data set: RP, Phenomenex Synergi Hydro-RP, 250 × 2 mm, 4 µm, 25 °C, 0.2 mL/min, estimated dead time 2.5 min; A: water + 0.1% formic acid, pH 3; B: acetonitrile + 0.1% formic acid, pH 3; gradient (min/%B) 0/0.5 7/0.5 12/12.5 25/16.3 47/35 48/65 50/65 50.1/0.5. Particulars: stereoisomer not certain.
Consider `O=c1cc(-c2ccc(O)c(O)c2)oc2cc(O)cc(O)c12` [Luteolin], for which the LC retention time was 47 min.

For `O=c1c(O)c(-c2ccc(O)cc2)oc2cc(O)cc(O)c12` [Kaempferol], the LC retention time is 52.3 min.

A further data set in a line: RP, Agilent ZORBAX RRHD Eclipse Plus C18, 50 × 2.1 mm, 1.8 µm, 30 °C, 0.4 mL/min, estimated dead time 0.28 min; A: water + 0.1% formic acid, pH 3; B: acetonitrile + 0.1% formic acid, pH 3; gradient (min/%B) 0/1 5/10 8/25 9.1/99 10/99 12/1. Particulars: stereoisomer not certain.
Consider `O=c1c(O)c(-c2ccc(O)cc2)oc2cc(O)cc(O)c12` [Kaempferol], for which the LC retention time is 9.16 min.

As to `O=c1c(OS(=O)(=O)O)c(-c2ccc(O)c(O)c2)oc2cc(O)cc(O)c12` [Quercetin 3-O-sulfate], the LC retention time was 7.73 min.

The next data set is described as follows: RP, 150 × 2.1 mm, 2.6 µm, 40 °C, 0.35 mL/min, estimated dead time 0.94 min; A: water + 0.1% formic acid, pH 3; B: acetonitrile + 0.1% formic acid, pH 3; gradient (min/%B) 0/0 1/5 7/45 8.5/80 10.5/80 11/5 12/5. Particulars: stereoisomer not certain.
`O=c1cc(-c2ccc(O)c(O)c2)oc2cc(O)cc(O)c12` [Luteolin]: the LC retention time is 7.52 min.

For `O=c1c(-c2ccc(O)cc2)coc2cc(O)cc(O)c12` [Genistein], the LC retention time was 8.03 min.

The nature of a further data set: RP, Waters ACQUITY UPLC HSS T3, 100 × 2.1 mm, 50 °C; A: water + 0.1% formic acid, pH 3; B: 30% methanol + 70% acetonitrile + 0.1% formic acid, pH 3; gradient (min/%B) 0/5 1/8 2/15 3/40 4/70 4.5/100 5/100 6.4/100 6.6/5 6.8/5 7/5. Particulars: stereoisomer not certain.
Regarding `O=c1cc(-c2ccc(O)c(O)c2)oc2cc(O)cc(O)c12` [Luteolin], the LC retention time was 3.75 min.

With `O=c1c(O)c(-c2ccc(O)cc2)oc2cc(O)cc(O)c12` [Kaempferol], the LC retention time came out at 3.88 min.

For `COc1cc(C=O)ccc1O` [Vanillin], the LC retention time amounted to 3.46 min.

A short description of another data set: RP, Merck LiChrospher RP-18, 250 × 4 mm, 5 µm, 35 °C, 0.3 mL/min, estimated dead time 6.7 min; A: water + 0.5% formic acid; B: acetonitrile + 0.5% formic acid; gradient (min/%B) 0/5 10/5 30/15 45/20 65/20 95/54 110/63 115/5 135/5. Particulars: stereoisomer not certain.
Regarding `O=c1cc(-c2ccc(O)c(O)c2)oc2cc(O)cc(O)c12` [Luteolin], the LC retention time was 91.1 min.

On to `O=c1c(O)c(-c2ccc(O)cc2)oc2cc(O)cc(O)c12` [Kaempferol], for which the LC retention time is 97.6 min.

Take `COc1cc(C=O)ccc1O` [Vanillin]: the LC retention time was 54.7 min.

A short description of a further data set: RP, Waters ACQUITY UPLC BEH Shield RP18, 100 × 2.1 mm, 1.7 µm, 30 °C, 0.6 mL/min, estimated dead time 0.37 min; A: water + 0.1% formic acid, pH 3; B: acetonitrile + 0.1% formic acid, pH 3; gradient (min/%B) 0/0 2/0 7/10 22/95 22.1/0 26/0. Particulars: stereoisomer not certain.
`O=c1cc(-c2ccc(O)c(O)c2)oc2cc(O)cc(O)c12` [Luteolin]: the LC retention time is 15.3 min.

`O=c1c(O)c(-c2ccc(O)cc2)oc2cc(O)cc(O)c12` [Kaempferol]: the LC retention time was 16.6 min.

Consider `COc1cc(C=O)ccc1O` [Vanillin], for which the LC retention time is 10.1 min.

For the compound `Oc1cc(O)c2c(c1)OC(c1ccc(O)c(O)c1)C(O)C2` (single isomer, unassigned; (-)) [(-)-Epicatechin], the LC retention time was 11.5 min.

Consider `O=c1c(-c2ccc(O)cc2)coc2cc(O)cc(O)c12` [Genistein], for which the LC retention time is 16.1 min.

With `O=c1c(OS(=O)(=O)O)c(-c2ccc(O)c(O)c2)oc2cc(O)cc(O)c12` [Quercetin 3-O-sulfate], the LC retention time was 19.4 min.

The next data set in a line: RP, Phenomenex Synergi Hydro-RP, 150 × 2 mm, 4 µm, 30 °C, 0.5 mL/min, estimated dead time 0.6 min; A: water + 0.1% formic acid, pH 3; B: acetonitrile + 0.1% formic acid, pH 3; gradient (min/%B) 0/5 1/5 35/45 40/100 45/100. Particulars: stereoisomer not certain.
For `O=c1cc(-c2ccc(O)c(O)c2)oc2cc(O)cc(O)c12` [Luteolin], the LC retention time was 22.6 min.

As for `O=c1c(O)c(-c2ccc(O)cc2)oc2cc(O)cc(O)c12` [Kaempferol], the LC retention time is 26.7 min.

Turning to `Oc1cc(O)c2c(c1)OC(c1ccc(O)c(O)c1)C(O)C2` (single isomer, unassigned; (-)) [(-)-Epicatechin], the LC retention time is 11.3 min.

Take `O=c1c(-c2ccc(O)cc2)coc2cc(O)cc(O)c12` [Genistein]: the LC retention time was 25.7 min.

Turning to `O=c1c(OS(=O)(=O)O)c(-c2ccc(O)c(O)c2)oc2cc(O)cc(O)c12` [Quercetin 3-O-sulfate], the LC retention time was 20.2 min.
